# Assay results published in PubChem BioAssay (NCI).
#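 Briefly, cells in 96-well plates were exposed to five compound concentrations for 48 h, and endpoints were estimated by linear interpolation. TGI marks complete inhibition of growth.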
# What was measured:
# Assay in all cases: NCI-60 cell line screen, 48 h
# IGROV1 ovarian = test system: IGROV1 ovarian
# MOLT-4 leukemia = test system: MOLT-4 leukemia
# HOP-18 NSCLC = test system: HOP-18 NSCLC
# OVCAR-8 ovarian = test system: OVCAR-8 ovarian
# SNB-75 CNS = test system: SNB-75 CNS
# LOX IMVI melanoma = test system: LOX IMVI melanoma
# M14 melanoma = test system: M14 melanoma
# SN12C renal = test system: SN12C renal
# 786-0 renal = test system: 786-0 renal
# OVCAR-3 ovarian = test system: OVCAR-3 ovarian
# KM20L2 colon = test system: KM20L2 colon
# K-562 leukemia = test system: K-562 leukemia
# RPMI-8226 leukemia = test system: RPMI-8226 leukemia
# KM12 colon = test system: KM12 colon
# XF 498 CNS = test system: XF 498 CNS
# NCI-H23 lung = test system: NCI-H23 lung
# A498 renal = test system: A498 renal
# DMS 273 small cell lung = test system: DMS 273 small cell lung
# NCI-H522 lung = test system: NCI-H522 lung
# CAKI-1 renal = test system: CAKI-1 renal
# HOP-62 NSCLC = test system: HOP-62 NSCLC
# UACC-62 melanoma = test system: UACC-62 melanoma
# HL-60(TB) leukemia = test system: HL-60(TB) leukemia
# HOP-92 NSCLC = test system: HOP-92 NSCLC
# M19-MEL melanoma = test system: M19-MEL melanoma
# SK-OV-3 ovarian = test system: SK-OV-3 ovarian
# OVCAR-5 ovarian = test system: OVCAR-5 ovarian
# U251 CNS = test system: U251 CNS
# SW-620 colon = test system: SW-620 colon
# HCT-15 colon = test system: HCT-15 colon
# DMS 114 small cell lung = test system: DMS 114 small cell lung
# SF-268 CNS = test system: SF-268 CNS
# ACHN renal = test system: ACHN renal
# EKVX NSCLC = test system: EKVX NSCLC
# SK-MEL-2 melanoma = test system: SK-MEL-2 melanoma
# NCI-H226 lung = test system: NCI-H226 lung
# MALME-3M melanoma = test system: MALME-3M melanoma
# TK-10 renal = test system: TK-10 renal
# SF-295 CNS = test system: SF-295 CNS
# SNB-19 CNS = test system: SNB-19 CNS
# HCC-2998 colon = test system: HCC-2998 colon
# COLO 205 colon = test system: COLO 205 colon
# NCI-H460 lung = test system: NCI-H460 lung
# UO-31 renal = test system: UO-31 renal
# SF-539 CNS = test system: SF-539 CNS
# SR leukemia = test system: SR leukemia
# HCT-116 colon = test system: HCT-116 colon
# SK-MEL-28 melanoma = test system: SK-MEL-28 melanoma
# SK-MEL-5 melanoma = test system: SK-MEL-5 melanoma
# OVCAR-4 ovarian = test system: OVCAR-4 ovarian
# UACC-257 melanoma = test system: UACC-257 melanoma
# HT29 colon = test system: HT29 colon
# RXF 393 renal = test system: RXF 393 renal
# LXFL 529 NSCLC = test system: LXFL 529 NSCLC
# DLD-1 colon = test system: DLD-1 colon
# A549 NSCLC = test system: A549 NSCLC
# CCRF-CEM leukemia = test system: CCRF-CEM leukemia
# SNB-78 CNS = test system: SNB-78 CNS
smiles,measurement,setting,value
COC(=O)CCC(=O)N1CC1C (stereo not given),TGI,IGROV1 ovarian,> 100 µM
same,TGI,MOLT-4 leukemia,> 100 µM
same,TGI,HOP-18 NSCLC,> 100 µM
same,TGI,OVCAR-8 ovarian,> 100 µM
same,TGI,SNB-75 CNS,> 100 µM
same,TGI,LOX IMVI melanoma,> 100 µM
same,TGI,M14 melanoma,> 100 µM
same,TGI,SN12C renal,> 100 µM
same,TGI,786-0 renal,> 100 µM
same,TGI,OVCAR-3 ovarian,> 100 µM
same,TGI,KM20L2 colon,> 100 µM
same,TGI,K-562 leukemia,> 100 µM
same,TGI,RPMI-8226 leukemia,> 100 µM
same,TGI,KM12 colon,> 100 µM
same,TGI,XF 498 CNS,> 100 µM
same,TGI,NCI-H23 lung,> 100 µM
same,TGI,A498 renal,> 100 µM
same,TGI,DMS 273 small cell lung,> 100 µM
same,TGI,NCI-H522 lung,> 100 µM
same,TGI,CAKI-1 renal,> 100 µM
same,TGI,HOP-62 NSCLC,> 100 µM
same,TGI,UACC-62 melanoma,> 100 µM
same,TGI,HL-60(TB) leukemia,> 100 µM
same,TGI,HOP-92 NSCLC,> 100 µM
same,TGI,M19-MEL melanoma,> 100 µM
same,TGI,SK-OV-3 ovarian,> 100 µM
same,TGI,OVCAR-5 ovarian,> 100 µM
same,TGI,U251 CNS,> 100 µM
same,TGI,SW-620 colon,> 100 µM
same,TGI,HCT-15 colon,> 100 µM
same,TGI,DMS 114 small cell lung,> 100 µM
same,TGI,SF-268 CNS,> 100 µM
same,TGI,ACHN renal,> 100 µM
same,TGI,EKVX NSCLC,> 100 µM
same,TGI,SK-MEL-2 melanoma,> 100 µM
same,TGI,NCI-H226 lung,> 100 µM
same,TGI,MALME-3M melanoma,> 100 µM
same,TGI,TK-10 renal,> 100 µM
same,TGI,SF-295 CNS,> 100 µM
same,TGI,SNB-19 CNS,> 100 µM
same,TGI,HCC-2998 colon,> 100 µM
same,TGI,COLO 205 colon,> 100 µM
same,TGI,NCI-H460 lung,> 100 µM
same,TGI,UO-31 renal,> 100 µM
same,TGI,SF-539 CNS,> 100 µM
same,TGI,SR leukemia,> 100 µM
same,TGI,HCT-116 colon,> 100 µM
same,TGI,SK-MEL-28 melanoma,> 100 µM
same,TGI,SK-MEL-5 melanoma,> 100 µM
same,TGI,OVCAR-4 ovarian,> 100 µM
same,TGI,UACC-257 melanoma,> 100 µM
same,TGI,HT29 colon,> 100 µM
same,TGI,RXF 393 renal,> 100 µM
same,TGI,LXFL 529 NSCLC,> 100 µM
same,TGI,DLD-1 colon,> 100 µM
same,TGI,A549 NSCLC,> 100 µM
same,TGI,CCRF-CEM leukemia,> 100 µM
Clc1ccc(OCc2nnc3n2N=C(c2ccccc2)CS3)c(Cl)c1,TGI,IGROV1 ovarian,> 100 µM
same,TGI,MOLT-4 leukemia,> 100 µM
same,TGI,OVCAR-8 ovarian,> 100 µM
same,TGI,SNB-75 CNS,19.6 µM
same,TGI,LOX IMVI melanoma,5.87 µM
same,TGI,786-0 renal,> 100 µM
same,TGI,K-562 leukemia,> 100 µM
same,TGI,KM12 colon,> 100 µM
same,TGI,XF 498 CNS,> 100 µM
same,TGI,NCI-H23 lung,> 100 µM
same,TGI,A498 renal,76.8 µM
same,TGI,DMS 273 small cell lung,> 100 µM
same,TGI,NCI-H522 lung,> 100 µM
same,TGI,CAKI-1 renal,> 100 µM
same,TGI,UACC-62 melanoma,> 100 µM
same,TGI,HL-60(TB) leukemia,> 100 µM
same,TGI,HOP-92 NSCLC,> 100 µM
same,TGI,M19-MEL melanoma,> 100 µM
same,TGI,SK-OV-3 ovarian,> 100 µM
same,TGI,OVCAR-5 ovarian,> 100 µM
same,TGI,U251 CNS,> 100 µM
same,TGI,SW-620 colon,> 100 µM
same,TGI,HCT-15 colon,> 100 µM
same,TGI,DMS 114 small cell lung,> 100 µM
same,TGI,SF-268 CNS,> 100 µM
same,TGI,ACHN renal,> 100 µM
same,TGI,SK-MEL-2 melanoma,> 100 µM
same,TGI,NCI-H226 lung,> 100 µM
same,TGI,MALME-3M melanoma,> 100 µM
same,TGI,SNB-78 CNS,> 100 µM
same,TGI,TK-10 renal,> 100 µM
same,TGI,SF-295 CNS,86.6 µM
same,TGI,SNB-19 CNS,> 100 µM
same,TGI,HCC-2998 colon,> 100 µM
same,TGI,NCI-H460 lung,> 100 µM
same,TGI,UO-31 renal,8.46 µM
same,TGI,SF-539 CNS,91.1 µM
same,TGI,SR leukemia,> 100 µM
same,TGI,HCT-116 colon,> 100 µM
same,TGI,SK-MEL-28 melanoma,> 100 µM
same,TGI,SK-MEL-5 melanoma,> 100 µM
same,TGI,OVCAR-4 ovarian,> 100 µM
same,TGI,UACC-257 melanoma,> 100 µM
same,TGI,HT29 colon,> 100 µM
same,TGI,RXF 393 renal,> 100 µM
same,TGI,LXFL 529 NSCLC,> 100 µM
same,TGI,DLD-1 colon,> 100 µM
same,TGI,A549 NSCLC,> 100 µM
same,TGI,CCRF-CEM leukemia,> 100 µM
OC12CCC3(O)c4ccccc4C3C1c1ccccc12 (stereo not given),TGI,MOLT-4 leukemia,> 100 µM
same,TGI,HOP-18 NSCLC,> 100 µM
same,TGI,OVCAR-8 ovarian,> 100 µM
same,TGI,SNB-75 CNS,> 100 µM
same,TGI,LOX IMVI melanoma,> 100 µM
same,TGI,M14 melanoma,> 100 µM
same,TGI,SN12C renal,> 100 µM
same,TGI,786-0 renal,> 100 µM
same,TGI,KM20L2 colon,> 100 µM
same,TGI,K-562 leukemia,> 100 µM
same,TGI,RPMI-8226 leukemia,> 100 µM
same,TGI,KM12 colon,> 100 µM
same,TGI,XF 498 CNS,> 100 µM
same,TGI,NCI-H23 lung,> 100 µM
same,TGI,DMS 273 small cell lung,> 100 µM
same,TGI,NCI-H522 lung,> 100 µM
same,TGI,HOP-62 NSCLC,> 100 µM
same,TGI,UACC-62 melanoma,> 100 µM
same,TGI,HL-60(TB) leukemia,> 100 µM
same,TGI,M19-MEL melanoma,> 100 µM
same,TGI,SK-OV-3 ovarian,> 100 µM
same,TGI,U251 CNS,> 100 µM
same,TGI,SW-620 colon,> 100 µM
same,TGI,HCT-15 colon,> 100 µM
same,TGI,SF-268 CNS,> 100 µM
same,TGI,ACHN renal,> 100 µM
same,TGI,EKVX NSCLC,> 100 µM
same,TGI,SK-MEL-2 melanoma,> 100 µM
same,TGI,NCI-H226 lung,> 100 µM
same,TGI,MALME-3M melanoma,> 100 µM
same,TGI,SNB-78 CNS,> 100 µM
same,TGI,TK-10 renal,> 100 µM
same,TGI,SF-295 CNS,> 100 µM
same,TGI,SNB-19 CNS,> 100 µM
same,TGI,COLO 205 colon,> 100 µM
same,TGI,NCI-H460 lung,> 100 µM
same,TGI,UO-31 renal,> 100 µM
same,TGI,SR leukemia,> 100 µM
same,TGI,HCT-116 colon,> 100 µM
same,TGI,SK-MEL-28 melanoma,> 100 µM
same,TGI,SK-MEL-5 melanoma,> 100 µM
same,TGI,OVCAR-4 ovarian,> 100 µM
same,TGI,UACC-257 melanoma,> 100 µM
same,TGI,HT29 colon,> 100 µM
same,TGI,RXF 393 renal,> 100 µM
same,TGI,LXFL 529 NSCLC,> 100 µM
same,TGI,A549 NSCLC,> 100 µM
same,TGI,CCRF-CEM leukemia,> 100 µM
CN1NC(c2ccccc2)=C(C#N)C(=O)CC1c1ccc(Br)cc1 (stereo not given),TGI,HOP-18 NSCLC,> 100 µM
same,TGI,SNB-75 CNS,46.9 µM
same,TGI,LOX IMVI melanoma,> 100 µM
same,TGI,M14 melanoma,45.8 µM
same,TGI,SN12C renal,> 100 µM
same,TGI,RPMI-8226 leukemia,> 100 µM
same,TGI,KM12 colon,> 100 µM
same,TGI,XF 498 CNS,78.2 µM
same,TGI,NCI-H23 lung,> 100 µM
same,TGI,A498 renal,> 100 µM
same,TGI,NCI-H522 lung,53.7 µM
same,TGI,CAKI-1 renal,> 100 µM
same,TGI,HOP-62 NSCLC,61 µM
same,TGI,HL-60(TB) leukemia,83 µM
same,TGI,HOP-92 NSCLC,> 100 µM
same,TGI,SK-OV-3 ovarian,> 100 µM
same,TGI,OVCAR-5 ovarian,73.7 µM
same,TGI,SW-620 colon,> 100 µM
same,TGI,HCT-15 colon,> 100 µM
same,TGI,SF-268 CNS,> 100 µM
same,TGI,ACHN renal,> 100 µM
same,TGI,SK-MEL-2 melanoma,70 µM
same,TGI,NCI-H226 lung,4.24 µM
same,TGI,MALME-3M melanoma,> 100 µM
same,TGI,SNB-78 CNS,> 100 µM
same,TGI,TK-10 renal,> 100 µM
same,TGI,SF-295 CNS,91.2 µM
same,TGI,SNB-19 CNS,> 100 µM
same,TGI,HCC-2998 colon,> 100 µM
same,TGI,NCI-H460 lung,> 100 µM
same,TGI,SR leukemia,> 100 µM
same,TGI,HCT-116 colon,> 100 µM
same,TGI,SK-MEL-28 melanoma,> 100 µM
same,TGI,SK-MEL-5 melanoma,57.7 µM
same,TGI,OVCAR-4 ovarian,> 100 µM
same,TGI,UACC-257 melanoma,> 100 µM
same,TGI,HT29 colon,75.6 µM
same,TGI,RXF 393 renal,> 100 µM
same,TGI,LXFL 529 NSCLC,> 100 µM
same,TGI,DLD-1 colon,> 100 µM
same,TGI,A549 NSCLC,> 100 µM
